Measured values taken from ChEMBL document CHEMBL3885881, “DrugMatrix”.

Organism: Rattus norvegicus
Experiment: DrugMatrix - Regimen: Daily Repeat
Format: toxicity, organism-based, Sprague-Dawley
Set-up: regimen Daily Repeat, gender Male, age 6-8 weeks
Conditions: in vivo, po, route oral GAVAGE, vehicle .5 % CMC; for ABSOLUTE BASOPHIL / ABSOLUTE EOSINOPHIL / ABSOLUTE LYMPHOCYTE / ABSOLUTE MONOCYTE / ABSOLUTE SEGMENTED NEUTROPHIL / BASOPHIL / EOSINOPHIL / ERYTHROCYTE COUNT / HEMATOCRIT / HEMOGLOBIN / LEUKOCYTE COUNT / LYMPHOCYTE / MEAN CORPUSCULAR HEMOGLOBIN / MEAN CORPUSCULAR HEMOGLOBIN CONCENTRATION / MEAN CORPUSCULAR VOLUME / MONOCYTE / NEUTROPHIL / NUCLEATED RED BLOOD CELLS / PLATELET COUNT: tissue Blood; for ALANINE AMINOTRANSFERASE / ALBUMIN / ALKALINE PHOSPHATASE / ASPARTATE AMINOTRANSFERASE / BLOOD UREA NITROGEN / CARBON DIOXIDE / CHLORIDE / CHOLESTEROL / CREATINE PHOSPHOKINASE / CREATININE / GLUCOSE / LACTATE DEHYDROGENASE / LIPASE / PHOSPHORUS / POTASSIUM / SODIUM / TOTAL BILIRUBIN / TOTAL PROTEIN / URIC ACID: tissue Plasma
[1] = 3 mg/kg, 120 h, dose level Low, time 5 day
[2] = 17 mg/kg, 72 h, dose level High, time 3 day
[3] = 17 mg/kg, 120 h, dose level High, time 5 day

COc1nc(C)nc(Cl)c1N=C1NCCN1 [MOXONIDINE]
ABSOLUTE BASOPHIL [1]: 0 CELLS/uL
ABSOLUTE EOSINOPHIL [1]: 0 CELLS/uL
ABSOLUTE LYMPHOCYTE [1]: 12936.33 CELLS/uL
ABSOLUTE MONOCYTE [1]: 47.33 CELLS/uL
ABSOLUTE SEGMENTED NEUTROPHIL [1]: 1849.67 CELLS/uL
BASOPHIL [1]: 0%
EOSINOPHIL [1]: 0%
ERYTHROCYTE COUNT [1]: 5.72 x10E6/uL
HEMATOCRIT [1]: 36.07%
HEMOGLOBIN [1]: 14.37 G/DL
LEUKOCYTE COUNT [1]: 14.83 x10E3/uL
LYMPHOCYTE [1]: 87%
MEAN CORPUSCULAR HEMOGLOBIN [1]: 25.13 pg
MEAN CORPUSCULAR HEMOGLOBIN CONCENTRATION [1]: 39.8 G/DL
MEAN CORPUSCULAR VOLUME [1]: 63.1 fL
MONOCYTE [1]: 0.33%
NEUTROPHIL [1]: 12.67%
NUCLEATED RED BLOOD CELLS [1]: 0.33 /100WBC
PLATELET COUNT [1]: 943.67 x10E3/uL
ALANINE AMINOTRANSFERASE [1]: 44.67 u/L
ALBUMIN [1]: 4.13 G/DL
ALKALINE PHOSPHATASE [1]: 346 u/L
ASPARTATE AMINOTRANSFERASE [1]: 83.67 u/L
BLOOD UREA NITROGEN [1]: 17.67 mg/dL
CARBON DIOXIDE [1]: 29.33 mmol/L
CHLORIDE [1]: 98 MEQ/L
CHOLESTEROL [1]: 69.67 mg/dL
CREATINE PHOSPHOKINASE [1]: 484.67 u/L
CREATININE [1]: 0.19 mg/dL
GLUCOSE [1]: 147 mg/dL
LACTATE DEHYDROGENASE [1]: 166.67 u/L
LIPASE [1]: 10 u/L
PHOSPHORUS [1]: 13.4 mg/dL
POTASSIUM [1]: 6.24 MEQ/L
SODIUM [1]: 145.27 MEQ/L
TOTAL BILIRUBIN [1]: 0.2 mg/dL
TOTAL PROTEIN [1]: 6.03 G/DL
URIC ACID [1]: 1.57 mg/dL
ABSOLUTE BASOPHIL [2]: 0 CELLS/uL
ABSOLUTE EOSINOPHIL [2]: 110.67 CELLS/uL
ABSOLUTE LYMPHOCYTE [2]: 13070 CELLS/uL
ABSOLUTE MONOCYTE [2]: 298.67 CELLS/uL
ABSOLUTE SEGMENTED NEUTROPHIL [2]: 1454 CELLS/uL
BASOPHIL [2]: 0%
EOSINOPHIL [2]: 0.67%
ERYTHROCYTE COUNT [2]: 6.02 x10E6/uL
HEMATOCRIT [2]: 36.53%
HEMOGLOBIN [2]: 14.5 G/DL
LEUKOCYTE COUNT [2]: 14.93 x10E3/uL
LYMPHOCYTE [2]: 87.33%
MEAN CORPUSCULAR HEMOGLOBIN [2]: 24.07 pg
MEAN CORPUSCULAR HEMOGLOBIN CONCENTRATION [2]: 39.67 G/DL
MEAN CORPUSCULAR VOLUME [2]: 60.63 fL
MONOCYTE [2]: 2%
NEUTROPHIL [2]: 10%
NUCLEATED RED BLOOD CELLS [2]: 0 /100WBC
PLATELET COUNT [2]: 1171.33 x10E3/uL
ALANINE AMINOTRANSFERASE [2]: 46.67 u/L
ALBUMIN [2]: 3.9 G/DL
ALKALINE PHOSPHATASE [2]: 274 u/L
ASPARTATE AMINOTRANSFERASE [2]: 131.67 u/L
BLOOD UREA NITROGEN [2]: 17.67 mg/dL
CARBON DIOXIDE [2]: 23.67 mmol/L
CHLORIDE [2]: 104 MEQ/L
CHOLESTEROL [2]: 63 mg/dL
CREATINE PHOSPHOKINASE [2]: 1708.67 u/L
CREATININE [2]: 0.17 mg/dL
GLUCOSE [2]: 146 mg/dL
LACTATE DEHYDROGENASE [2]: 536.33 u/L
LIPASE [2]: 8.67 u/L
PHOSPHORUS [2]: 9.2 mg/dL
POTASSIUM [2]: 5.68 MEQ/L
SODIUM [2]: 142.1 MEQ/L
TOTAL BILIRUBIN [2]: 0.17 mg/dL
TOTAL PROTEIN [2]: 5.43 G/DL
URIC ACID [2]: 1.53 mg/dL
ABSOLUTE BASOPHIL [3]: 0 CELLS/uL
ABSOLUTE EOSINOPHIL [3]: 74 CELLS/uL
ABSOLUTE LYMPHOCYTE [3]: 15545.33 CELLS/uL
ABSOLUTE MONOCYTE [3]: 52.33 CELLS/uL
ABSOLUTE SEGMENTED NEUTROPHIL [3]: 1961.67 CELLS/uL
BASOPHIL [3]: 0%
EOSINOPHIL [3]: 0.33%
ERYTHROCYTE COUNT [3]: 5.87 x10E6/uL
HEMATOCRIT [3]: 34.5%
HEMOGLOBIN [3]: 13.8 G/DL
LEUKOCYTE COUNT [3]: 17.63 x10E3/uL
LYMPHOCYTE [3]: 88.67%
MEAN CORPUSCULAR HEMOGLOBIN [3]: 23.5 pg
MEAN CORPUSCULAR HEMOGLOBIN CONCENTRATION [3]: 40 G/DL
MEAN CORPUSCULAR VOLUME [3]: 58.73 fL
MONOCYTE [3]: 0.33%
NEUTROPHIL [3]: 10.67%
NUCLEATED RED BLOOD CELLS [3]: 0.33 /100WBC
PLATELET COUNT [3]: 1240.33 x10E3/uL
ALANINE AMINOTRANSFERASE [3]: 48 u/L
ALBUMIN [3]: 3.97 G/DL
ALKALINE PHOSPHATASE [3]: 270.33 u/L
ASPARTATE AMINOTRANSFERASE [3]: 91.33 u/L
BLOOD UREA NITROGEN [3]: 23 mg/dL
CARBON DIOXIDE [3]: 25 mmol/L
CHLORIDE [3]: 104.67 MEQ/L
CHOLESTEROL [3]: 70.33 mg/dL
CREATINE PHOSPHOKINASE [3]: 333.33 u/L
CREATININE [3]: 0.21 mg/dL
GLUCOSE [3]: 128 mg/dL
LACTATE DEHYDROGENASE [3]: 169 u/L
LIPASE [3]: 9.67 u/L
PHOSPHORUS [3]: 10.3 mg/dL
POTASSIUM [3]: 5.89 MEQ/L
SODIUM [3]: 144.27 MEQ/L
TOTAL BILIRUBIN [3]: 0.17 mg/dL
TOTAL PROTEIN [3]: 5.67 G/DL
URIC ACID [3]: 1.43 mg/dL
